Data reported in patent US20260206810A1, “NATURAL SWEETENER COMPOSITIONS AND USES THEREOF” (Firmenich SA, priority 2022, published 2026).
“And” between values parts separate entries of the source, which are not always exact repeats. Identical values can stand only once.

Assay: Visual assessment of sweetener solubilization (solution aspect) at room temperature
Format: physicochemical
Procedure: Unless otherwise stated, the inventive compositions of the examples were prepared according to the following general procedure. Solvent A, Solvent B (or mix of solvents B) and solvent C (or mix of solvents C) were mixed using a mechanical stirrer at room temperature (22° C.) to obtain a clear one-phase liquid. A solid natural sweetener in pure form or a blend of solid natural sweeteners was then added to the transparent solvent mixture and mechanically stirred. Mechanical stirring was maintained until the complete solubilization of the sweetener(s) at room temperature was observed. Comparative compositions were prepared analogously. The tables in the following examples summarize the components used in the inventive and comparative compositions.
Comparative and inventive compositions were prepared according to Table 1 below. The solubilization of the sweetener was assessed visually as a function of time. The stability of the concentrated solution (transparency of the solution) was also assessed visually at room temperature (22° C.) as a function of time.

Question: For `C=C1C[C@@]23CC[C@H]4[C@@](C)(CCC[C@@]4(C)C(=O)O[C@@H]4O[C@H](CO)[C@@H](O)[C@H](O)[C@H]4O)[C@@H]2CC[C@]1(O[C@@H]1O[C@H](CO)[C@@H](O)[C@H](O[C@@H]2O[C@H](CO)[C@@H](O)[C@H](O)[C@H]2O)[C@H]1O[C@@H]1O[C@H](CO)[C@@H](O)[C@H](O)[C@H]1O)C3` [Reb A (99.5%), Rebaudioside A], which “Amount dispersed giving non-complete solubilization and a cloudy solution” value (binary mix ethanol/water 80/20, after 1 day at room temperature (22° C.)) is on record?
Answer: 3 % wt

Question: What about the “Amount dispersed giving non-complete solubilization and a cloudy solution” value (binary mix glycerol/water 80/20, after 1 day at room temperature (22° C.)) of the same compound?
Answer: 2 % wt and 1 % wt

Question: What about the “Amount dispersed giving non-complete solubilization and a cloudy solution” value (binary mix propylene glycol/glycerol 33/66, after 2 days at room temperature (22° C.)) of the same compound?
Answer: 4.6 % wt

Question: And the “Amount of sweetener that was soluble” value (binary mix propylene glycol/glycerol 33/66, room temperature (22° C.))?
Answer: 2.6 % wt

Question: What about the “Amount dispersed giving non-complete solubilization and a cloudy solution” value (binary mix propylene glycol/glycerol 50/50, after 2 days at room temperature (22° C.)) of the same compound?
Answer: 4.6 % wt

Question: And the “Amount of sweetener that was soluble” value (binary mix propylene glycol/glycerol 50/50, room temperature (22° C.))?
Answer: 3.8 % wt

Question: And the “Amount dispersed giving non-complete solubilization and a cloudy solution” value (binary mix propylene glycol/water 80/20, after 2 days at room temperature (22° C.))?
Answer: 11 % wt

Question: And the “Amount of sweetener that was soluble” value (binary mix propylene glycol/water 80/20, room temperature (22° C.))?
Answer: 10 % wt

Question: And the “Amount of sweetener solubilized” value (glycerol/water 80/20 with 48% wt of glycerol replaced by ethanol)?
Answer: 12%
